Literature values as cited in patent publication US20250250539A1, “METHOD FOR EVALUATING ACTIVITY OF INHIBITING OR PROMOTING AGGREGATION OF AGGREGATING PROTEINS” (KANEKA CORPORATION, priority 2022, published 2025).

Tested on: amyloid β protein
Conditions: known cell-free evaluation system

O=C(/C=C/c1ccc(O)c(O)c1)O[C@H](Cc1ccc(O)c(O)c1)C(=O)O [rosmarinic acid]
activity of inhibiting aggregation: exhibiting activity of inhibiting aggregation
